Reference: patent US10994013B2, “Solid dosage form containing arabinogalactan” (TEMPLE UNIVERSITY—OF THE COMMONWEALTH SYSTEM OF HIGHER …, priority 2013, dated 2021)
≈ marks a conversion by molar mass, not a printed value. Read-outs that look alike come from different tables or passages of the source. Each block holds one compound with its values, some of them ahead of it.

What was measured:
[1] = cited from earlier work
[2] = Relative degree of crystallinity (RDC) by XRPD; format: physicochemical; details: at 10% DL SD with AGF
Description: The term “relative degree of crystallinity (RDC),” as used herein is the degree of crystallinity of the therapeutic agent in the dosage form relative to the degree of crystallinity of the neat therapeutic agent. RDC is calculated using the following formula: RDC=I sample/I therapeutic agent I sample: peak height of the formulation under investigation at a chosen angle (2θ) I therapeutic agent: peak height of the neat therapeutic agent at the same angle that was chosen for the sample (2θ)
Powder X-ray diffraction of the ibuprofen-arabinogalactan MSDs was carried out to determine the crystallinity of the ibuprofen. Powder samples ([…]) were placed on a sample holder and the diffractograms were collected using a Bruker D8 diffractometer (Madison, Wis.) with Cu Kα radiation. The voltage of 40 kV was used and the current was 40 mA. The samples were scanned from 2 θ to 40 θ at a rate of 2 θ/minute. The data analysis was done using Bruker-AXs EVA software (version 15.0).
XRPD were collected using Rigaku D-Max B X-ray Diffractometer (Tokyo, Japan). The powder sample size of 0.5 gram was used and samples were run at 35 kV at 15 mA and […]. JADE software (version 9) was used to process, acquire and analyze the data.

[3] = Physical stability: XRPD RDC at accelerated storage conditions; format: physicochemical; details: IBU as reference, 2θ of 22.4°
Description: The RDC was measured by XRPD as described above for the dosage forms listed in Table 22 at various accelerated storage conditions. Batches of IBU AGF SDM, IBU HPMCK3 SDM, IBU HPMCK3 MSD and IBU AGF MSD at 10% drug load and 20% drug load were prepared as described above. In addition, 10% IBU AGF MSD and 10% IBU AGF SDM batches were prepared with 0.02% butylated hydroxytoluene (BHT), an antioxidant. […] 60% relative humidity and 40° C. […] These findings were confirmed by DSC (not shown).

[4] = Equilibrium solubility of drug in polymer solution in 0.1N HCl; format: physicochemical; details: for solubility thermodynamic at 72 h: 0.1 N HCl without polymer, simulated gastric fluid, thermodynamic from solid, 0.1 N HCl, 37 C, no polymer, read-out: saturation / equilibrium solubility of neat drug; for fold increase in drug solubility in the presence of AGF polymer: AGF dissolved in 0.1N HCl, 0% to 3%, ITRA and KETO at 3%
Description: Anal. Chem. Instrum. […] An excess of IBU (200 mg) was added to 10 ml of polymer solution in 0.1N HCl in a stoppered glass vial and was bath sonicated for 30 minutes. The polymer concentrations ranged from 0% to 3% (0 mg/ml to 30 mg/ml). The vials were kept in a shaking water bath at 37 C and at 50 rpm for 72 hours to obtain equilibrium. After 72 hours the shaker was turned off and the samples were kept at a standstill at 37 C for 3 hours to settle the undissolved drug at the bottom of the glass vials. The supernatant was filtered using a 0.45 micron filter.
For an equilibrium study of itraconazole, 50 mg itraconazole (ITRA) was added to 20 ml of AGF polymer solution in 0.1 N HCl.

[5] = In vitro drug dissolution, USP basket method, 0.1 N HCl; format: physicochemical; details: for % drug release at 15 minutes / % drug release at 30 minutes / % drug release at 120 minutes: 0.1N HCl, AGF formulations
Description: (§1) The in vitro drug dissolution rates of the dosage forms listed in Table 4 below were determined by the USP basked method (270 mesh, 53 micron pore size). The Van Kel VK7010 dissolution system was employed. 900 ml of 0.1 N HCl at 37° C. was used as a dissolution medium. The media was selected to mimic gastric pH and to allow greater discrimination of ibuprofen dissolution profiles due to formulation and processing effects. The dissolution experiment was run at 100 rpm. Each sample contained a dosage form equivalent to 25 mg of ibuprofen to maintain the non sink conditions, i.e. to employ a volume of medium (900 ml in this case) that is less than the volume of medium required for sink conditions, which is three times that required in order to form a saturated solution of drug. In vitro dissolution of 25 mg of neat ibuprofen was used as a control. At appropriate time intervals, samples were collected and replaced by fresh media. Each sample was filtered and the drug was analyzed using Agilent/HP 8453 UV-Vis spectrophotometer (λmx=222 nm). The experiment was conducted in triplicate. T50 (time for 50% drug release), T60 (time for 60% drug release), and T80 (time for 80% drug release) was recorded directly from the dissolution profiles.
as §1, with “PMs and MSDs made with ibuprofen and AGF or HPMCK3” for “the dosage forms listed in Table 4 below”, “contained an MSD or” for “contained”, “PM” for “dosage form”
In vitro basket dissolution was carried out on SDM and PM formulations as described in Example 3. Each sample of ITRA AGF SDM contained an amount equivalent to 25 mg of ITRA to maintain the non sink conditions. ITRA was analyzed using an Agilent/HP 8453 UV-Vis spectrophotometer (λmax=257 nm).
UV analysis was conducted at λmax=260 nm.
The degree of similarity between the dissolution profiles was calculated using the following equation from Moore and Flanner, 1996, Pharm. Tech. 20:64-74, and using data points up to 85% drug release (Shah et al., 1998, Pharm. Res. 15:889-896):
Two dissolution profiles would be deemed similar if the average difference between the reference and the test assay at the same time point were less than 10%. The similarity factor value would then not be less than 50%.

SMILES: CC(=O)N1CCN(c2ccc(OC[C@H]3CO[C@](Cn4ccnc4)(c4ccc(Cl)cc4Cl)O3)cc2)CC1 (racemic) [KETOC, ketoconazole]
Solubility [1]: 10 µg/mL (≈ 18.8 µM)

SMILES: CCCNC(=O)NS(=O)(=O)c1ccc(Cl)cc1 [CHLOPR, chlorpropamide]
Solubility ([1]; water at pH 6): 2500 µg/mL (≈ 9030 µM)

SMILES: C[C@@H](C(=O)O)c1ccc(-c2ccccc2)c(F)c1 [FLURBI, flurbiprofen]
Solubility [1]: 482 µg/mL (≈ 1970 µM)

RDC value [2]: 0.125
SMILES: CC(C(=O)O)c1cccc(Oc2ccccc2)c1 (stereo not shown) [Fenoprofen, fenoprofen]
Solubility ([1]; for its calcium salt): <<<<<<2500 μg/ml

XRPD RDC, 25° C. and 0% relative humidity (6 Months) [3]: 1
XRPD RDC, 25° C. and 60% relative humidity (6 Months) [3]: 1
XRPD RDC, 40° C. and 0% relative humidity (3 Months) [3]: 1
XRPD RDC, 40° C. and 75% relative humidity (3 Months) [3]: 1
XRPD RDC, INITIAL [3]: 1
solubility thermodynamic at 72 h [4]: 37 µg/mL (≈ 179 µM)
fold increase in drug solubility in the presence of AGF polymer [4]: 7.3 fold
IBU solubility with increasing HPMCK3 concentration ([4]; control polymer HPMCK3 in 0.1N HCl): did not enhance the solubility
% drug release at 15 minutes [5]: 8%
% drug release at 30 minutes [5]: 27%
% drug release at 120 minutes [5]: 41%
T60 (time for 60% drug release) ([5]; 900 ml 0.1 N HCl, 37° C., 100 rpm, 25 mg ibuprofen, non sink): 300 min
SMILES: CC(C)Cc1ccc(C(C)C(=O)O)cc1 (stereo not shown) [IBU, Ibuprofen]

solubility thermodynamic at 72 h [4]: 5720 µg/mL (≈ 8110 µM)
fold increase in drug solubility in the presence of AGF polymer [4]: 16 fold
SMILES: CCC(C)n1ncn(-c2ccc(N3CCN(c4ccc(OCC5COC(Cn6cncn6)(c6ccc(Cl)cc6Cl)O5)cc4)CC3)cc2)c1=O (stereo not shown) [ITRA, Itraconazole]

% drug release at 15 minutes [5]: 1.8%
% drug release at 30 minutes [5]: 3.3%
% drug release at 120 minutes [5]: 8.4%
SMILES: CC(C(=O)O)c1cccc(C(=O)c2ccccc2)c1 (stereo not shown) [KETO, Ketoprofen]

SMILES: COCCOC(=O)C1=C(C)NC(C)=C(C(=O)OC(C)C)C1c1cccc([N+](=O)[O-])c1 (stereo not shown) [NIMO, nimodipine]
Solubility [1]: 2299 µg/mL (≈ 5490 µM)

SMILES: CC(C)NCC(O)COc1cccc2ccccc12 (stereo not shown) [PROPFB, propranolol free base]
Solubility [1]: 120 µg/mL (≈ 463 µM)

SMILES: Clc1ccc(C(Cn2ccnc2)OCc2ccsc2Cl)c(Cl)c1 (stereo not shown) [TIOCO, tioconazole]
Solubility [1]: ~2 µg/mL (≈ 5.16 µM)
